Marks after values point to notes of the source that are not given here.
Test system: TNBS-induced ulcerative colitis model mice
Experiment: TNBS-induced mice ulcerative colitis model
Format: in vivo, BALB/c male mice
Set-up: key to Scores of gross morphological damages: 0 = no adhesion/ulcer/inflammation, 4+ = severe ulcers (+1 per cm)
Settings: compound 20 mg/kg; for Score (body weight index according to the disease activity index, DAI): 0-4 points by weight decrease; for Length of the colon / Weight of the colon: 24 hours after last administration; for weight/length ratio (average) of colon: colon weight (g) / length (cm); for Ratio of weight loss: ig daily for 7 days from day of modeling, positive drug sulfasalazine 500 mg/kg, 10 mice per group
Experimental: BALB/c male mice (each 18-22 g) of SPF level were purchased from Shanghai Slack Laboratory Animal Co., Ltd. and were used in experiments after adaptive feeding for 7 days.
BALB/c male mice were kept in an animal cage (daylight and darkness of 12 hours, respectively) at a temperature of 20-25° C. and relative humidity of 50-60%, free access to food and water.
Mice were randomly divided into normal control group, trinitrobenzenesulfonic acid (TNBS) model group, drug treatment group and positive drug control group (sulfasalazine 500 mg/kg).
All of the mice in model group and administration group were shaved in the abdomen (area 2×2 cm) and sensitized with 1% TNBS (dissolved in 50% ethanol). On the 7th day, the mice were fasted, but not water. After 24 hours, the mice were anesthetized through intraperitoneal injection of 0.1 ml of 10% chloral hydrate and 2% TNBS was used for lavation to establish a mouse model of ulcerative colitis. A gavage needle for rat was inserted into the colon of a mouse, the tip of the needle was about 3˜3.5 cm away from the anus, and 0.1 ml of modeling solution (5% TNBS and deionized water were mixed at a volume ratio of 4:1, and the obtained solution was mixed with absolute ethanol at a volume ratio of 1:1, so as to obtain the modeling solution) was injected. The mice were put back into the cage and wake up naturally. The mice in the normal control group were injected with 0.12 ml of solvent (50% ethanol solution) by the same manner.
Administration was started on the day of modeling (using 0.5% sodium carboxymethylcellulose, CMC-Na) for 7 consecutive days.
At 24 hours after the last administration, the mice were sacrificed by cervical dislocation, the peritoneum was cut open, and the whole colon was taken. The intestine was cut longitudinally along the mesenteric margin, rinsed with ice physiological saline, placed on ice, and the pathological changes of the colon were observed. The fat and mesentery were removed, the water was blotted with filter paper, the weight of the colon was weighed and the length was measured. The colon was fixed in 4% formaldehyde for more than 24 hours, dehydrated, paraffin-embedded and H&E stained, and the pathological sections were observed.
The mice were observed and recorded daily for mental state, fur color, and activities. The mice was weighed daily and observed for the stool traits. The body weight index according to the disease activity index (DAI) is as follows:
After the colon of a mouse was removed, the weight of the colon was measured with a precision electronic balance, the length was measured with a vernier caliper, and the weight/length ratio of the colon was calculated.
The criteria for scores were: no adhesion, no ulcer, no inflammation, 0 points; mild adhesion, local congestion, no ulcer, 1 point; severe adhesion, 1 ulcer (area less than 1 cm), no obvious inflammation, 2 points; more than 1 ulcers (area less than 1 cm) with inflammation, 3 points; 2 severe ulcers (area greater than 1 cm) with inflammation, 4 points; and 1 point for each 1 cm increase in ulcer area.
Pathological changes of colon tissue were observed under light microscope, and the scores were recorded. The criteria for scores are as follows:
1) Epithelial cells: normal morphology, 0 points; loss of goblet cells, 1 point; large loss of goblet cells, 2 points; loss of crypt cells, 3 points; large loss of crypt cells, 4 points.
2) Infiltration of inflammatory cells: no infiltration, 0 points; infiltration in the basal layer of the crypt, 1 point; infiltration to the muscular layer of the mucosa, 2 points; infiltration to the muscular layer of the mucosa with mucosal thickening and obvious edema, 3 points; infiltration to the submucosal layer, 4 points.
Data were expressed as […] (mean±S.E.M.), data were analyzed using SPSS statistical software, and one-way ANOVA and Tukey's HSD post hoc test were used for comparison between groups. p<0.05 was considered statistically significant.

[1] = ig 7 days, sulfasalazine 500 mg/kg

| SMILES | Score (body weight index according to the disease activity index, DAI) [1] | Length of the colon [1] | Weight of the colon [1] | Histopathology scores (H&E colon sections, epithelial cells and inflammatory cell infiltration points, ig 7 days, sulfasalazine 500 mg/kg) | Scores of gross morphological damages (colon adhesion, ulceration, inflammation points, ig 7 days, sulfasalazine 500 mg/kg) | weight/length ratio (average) of colon [1] | Ratio of weight loss |
| --- | --- | --- | --- | --- | --- | --- | --- |
| CN(/N=C/c1ccccc1C(=O)O)c1nc(-c2ccccc2Cl)cs1 [Compound 1, (E)-4-(2-chlorophenyl)-2-[1-methyl-2-(2-carboxybenzylidene)hydrazino]thiazole] | 1 | 5.575 ± 0.452 cm | 0.162 ± 0.027 g | 2.54 ± 0.62 | 2.32 ± 0.69 | 0.029# | 2.61 ± 4.53 |
| CCCN(/N=C/c1ccccc1C(=O)O)c1nc(-c2ccccc2Cl)cs1 [Compound 3, (E)-4-(2-chlorophenyl)-2-[1-propyl-2-(2-carboxybenzylidene)hydrazino]thiazole] | 2 | 5.699 ± 0.368 cm | 0.159 ± 0.023 g |  |  | 0.028# | 4.26 ± 4.65 |

Source: US20190290620A1, “APPLICATIONS OF NOVEL THIAZOLE DERIVATIVE IN TREATING INFLAMMATORY BOWEL DISEASES” (EAST CHINA UNIVERSITY OF SCIENCE AND TECHNOLOGY, priority 2016, published 2019)
